According to patent US20240115557A1, “INHIBITORS OF RNA-GUIDED NUCLEASES AND USES THEREOF” (The Brigham and Women's Hospital, Inc., priority 2022, published 2024):

Biological target: SpCas9 (Streptococcus pyogenes serotype M1, UniProt Q99ZW2)
Assay: Target engagement in live cells (photo-crosslinking, pull-down)
Type: cell-based
Settings: HEK293T, 20 μM probe, 20 μM competitor
Method: HEK293T cells were plated in a 6-well plate (400,000 cells/well). The next day, cells were transfected with […] of Cas9 expression plasmid (pX330, Addgene #42230)^51 using Lipofectamine 3000 (Invitrogen). Eight hours after transfection, cells were split into 4 wells of a 12-well plate. Total 24 h after transfection, cells were treated with DMSO, Diazirine-BRD7586 (20 μM), or Diazirine-BRD7586 with BRD7586 (both at 20 μM) for 2 h. Cells were washed with PBS once, and 500 μL of fresh PBS was added to each well. The plate was placed on ice, and cells were irradiated with UV (365 nm) for 15 min. After the removal of PBS, cells were stored at−80° C. until further analysis. Thawed cells were suspended in a lysis buffer (25 mM HEPES, 50 mM KCl, 1% Triton X-100, 1× protease inhibitor cocktail, pH 7.4, 200 μL per well), and a brief sonication was performed to ensure cell lysis. Next, click chemistry was performed with 100 μM of biotin-azide, 350 μM of Cu-TBTA, and 1.5 mM of ascorbate. The reaction was proceeded for 2 h at room temperature with mild rotation, then proteins were precipitated by the addition of cold methanol (5-fold volume of the reaction mixture) to the mixture and keeping at −80° C. for >2 h. Protein pellet was obtained by centrifugation for 10 min at 16,000 g and 4° C. […]

Chain of SpCas9 (Q99ZW2 whole entry): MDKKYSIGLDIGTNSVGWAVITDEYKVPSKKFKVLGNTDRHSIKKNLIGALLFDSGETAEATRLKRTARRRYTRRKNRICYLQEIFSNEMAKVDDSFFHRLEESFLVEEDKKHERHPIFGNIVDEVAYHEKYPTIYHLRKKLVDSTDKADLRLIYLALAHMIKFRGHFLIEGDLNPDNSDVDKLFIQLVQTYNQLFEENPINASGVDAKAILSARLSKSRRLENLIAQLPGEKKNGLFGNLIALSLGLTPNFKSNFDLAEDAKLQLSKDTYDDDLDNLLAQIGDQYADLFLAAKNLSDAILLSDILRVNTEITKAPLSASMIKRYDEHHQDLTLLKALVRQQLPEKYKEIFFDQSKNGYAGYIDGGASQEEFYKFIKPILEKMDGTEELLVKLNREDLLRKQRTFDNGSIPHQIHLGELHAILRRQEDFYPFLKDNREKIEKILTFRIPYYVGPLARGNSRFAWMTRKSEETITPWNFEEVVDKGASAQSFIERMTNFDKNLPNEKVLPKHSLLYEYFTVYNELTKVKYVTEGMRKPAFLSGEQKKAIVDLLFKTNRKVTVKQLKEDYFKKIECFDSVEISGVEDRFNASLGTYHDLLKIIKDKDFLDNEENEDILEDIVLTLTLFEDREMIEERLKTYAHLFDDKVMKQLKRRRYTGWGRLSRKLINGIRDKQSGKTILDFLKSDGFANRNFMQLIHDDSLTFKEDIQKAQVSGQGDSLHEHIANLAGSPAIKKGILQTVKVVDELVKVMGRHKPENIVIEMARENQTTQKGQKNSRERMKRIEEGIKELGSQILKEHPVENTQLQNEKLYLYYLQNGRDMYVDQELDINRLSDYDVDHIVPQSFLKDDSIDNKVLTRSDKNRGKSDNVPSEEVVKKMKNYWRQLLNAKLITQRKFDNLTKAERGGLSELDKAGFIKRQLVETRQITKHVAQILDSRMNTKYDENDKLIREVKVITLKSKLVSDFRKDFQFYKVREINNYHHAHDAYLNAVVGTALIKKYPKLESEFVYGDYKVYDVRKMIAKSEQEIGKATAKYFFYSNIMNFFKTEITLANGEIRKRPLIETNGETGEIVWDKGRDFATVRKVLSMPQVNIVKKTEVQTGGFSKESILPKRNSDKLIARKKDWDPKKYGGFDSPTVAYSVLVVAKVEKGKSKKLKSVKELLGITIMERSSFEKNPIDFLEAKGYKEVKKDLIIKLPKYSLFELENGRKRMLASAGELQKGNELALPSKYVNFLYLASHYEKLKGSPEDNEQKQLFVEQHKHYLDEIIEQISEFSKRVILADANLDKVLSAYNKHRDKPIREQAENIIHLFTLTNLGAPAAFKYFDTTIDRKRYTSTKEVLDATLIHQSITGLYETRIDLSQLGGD

O=C(CCS(=O)(=O)c1ccc(Cl)cc1)Nc1nc(-c2ccncc2)cs1 [BRD7586]
Target engagement in live cells: demonstrating target engagement in live cells
